Assay results: US20080113974A1, “Heterocyclic Oxime Compounds, A Process For Their Preparation And Pharmaceutical Compositions Containing Them” (LES LABORATOIRES SERVIER, priority 2005, published 2008)

Test system: ob/ob mouse
Experiment: Antidiabetic and hypolipaemic effect in the ob/ob mouse
Format: in vivo
Conditions: dose of 3 mg/kg; for variation in body weight: four days, body weight measured daily
Description: The 10-week-old female ob/ob mouse (Harlan) is used for the in vivo tests. The animals are kept in a light-darkness cycle of 12 hours at 25° C. The mouse has a basal hyperglycaemia of 2 g/l. The animals are randomly selected with regard to their glycaemia to form groups of six. […] […] The control groups receive the solvents under the same conditions as the treated groups.
The activity of the products is evaluated by measuring glycaemia, triglycerides and insulinaemia 24 hours after the final administration and by measuring body weight daily.

[1] = twice per day for four days, 24 hours after the final administration

Question: Which results are given for CCOC(Cc1ccc(OCCN2C(=O)COc3ccc(C(=NO)c4ccccc4)cc32)cc1)C(=O)O (centres unmarked) [Example 11]?
Answer: variation in body weight: insignificant variation; reduction in glycaemia [1]: 25%; reduction in insulinaemia [1]: 22%; reduction in triglycerides [1]: 45%

Question: Which “variation in body weight” value does the source give for CN(CCOc1ccc(CC2SC(=O)NC2=O)cc1)c1ccccn1 (centres unmarked) [rosiglitazone, reference compound] here?
Answer: significant increase
